Reference: patent publication US20240228504A1, “SUBSTITUTED TRICYCLIC AMIDES, ANALOGUES THEREOF, AND METHODS USING SAME” (Arbutus Biopharma Corporation, priority 2020, published 2024)
Like-named read-outs stand apart in the source and are kept apart here.

Tested on: HBV rcDNA in HepDE19 cells
Experiment: HepDE19 assay with bDNA quantitation of HBV rcDNA
Type: cell-based, hepatitis B virus
Conditions: inhibition of rcDNA formation, bDNA quantitation, read-out: DE-19bDNA EC50
[1] = Hepatitis B virus, HepDE19, HepDE19 assay

Compound | EC50 (HepDE19 assay) [µM] | EC50 [1] [µM]
CN(C(=O)c1cc2ccccc2[nH]1)C1CNCc2[nH]c(=O)c3cc(F)ccc3c21 (single isomer, unassigned) [Compound 77, N-(8-Fluoro-6-oxo-1,2,3,4,5,6-hexahydrobenzo[c][1,7]naphthyridin-1-yl)-N-methyl-1H-indole-2-carboxamide] | 0.15 | 
CN(C(=O)c1cc(F)c(F)c(F)c1)[C@@H]1COCc2[nH]c(=O)c3cc(F)c(F)cc3c21 [Compound 76, (S)-N-(8,9-Difluoro-6-oxo-1,4,5,6-tetrahydro-2H-pyrano[3,4-c]isoquinolin-1-yl)-3,4,5-trifluoro-N-methylbenzamide] |  | 0.09
CN(C(=O)c1cnc(C(F)(F)F)c(Cl)c1)[C@@H]1COCc2[nH]c(=O)c3cc(F)c(F)cc3c21 [Compound 377, (S)-5-Chloro-N-(8,9-difluoro-6-oxo-1,4,5,6-tetrahydro-2H-pyrano[3,4-c]isoquinolin-1-yl)-N-methyl-6-(trifluoromethyl)nicotinamide] |  | 0.04
CN(C(=O)c1cc2ccc(Br)cn2c1)[C@@H]1COCc2[nH]c(=O)c3cc(F)c(F)cc3c21 [Compound 348, (S)-6-Bromo-N-(8,9-difluoro-6-oxo-1,4,5,6-tetrahydro-2H-pyrano[3,4-c]isoquinolin-1-yl)-N-methylindolizine-2-carboxamide] |  | 0.04
CN(C(=O)c1cccc(F)c1)[C@@H]1COCc2[nH]c(=O)c3cc(F)c(F)cc3c21 [Compound 127, (S)-N-(8,9-Difluoro-6-oxo-1,4,5,6-tetrahydro-2H-pyrano[3,4-c]isoquinolin-1-yl)-3-fluoro-N-methylbenzamide] |  | 0.38
CN(C(=O)c1cc2c(F)cccc2[nH]1)C1COCc2[nH]c(=O)c3cc(F)c(F)cc3c21 (single isomer, unassigned) [Compound 23, N-(8,9-Difluoro-6-oxo-1,4,5,6-tetrahydro-2H-pyrano[3,4-c]isoquinolin-1-yl)-4-fluoro-N-methyl-1H-indole-2-carboxamide] | 4.5 | 
CN(C(=O)c1ccc2c(Cl)n(C(F)F)nc2c1)[C@@H]1COCc2[nH]c(=O)c3cc(F)c(F)cc3c21 [Compound 358, (S)-3-Chloro-N-(8,9-difluoro-6-oxo-1,4,5,6-tetrahydro-2H-pyrano[3,4-c]isoquinolin-1-yl)-2-(difluoromethyl)-N-methyl-2H-indazole-6-carboxamide] |  | 0.68
CC(O)c1cc(F)cc2[nH]c(C(=O)N(C)[C@@H]3COCc4[nH]c(=O)c5cc(F)c(F)cc5c43)cc12 (single isomer, unassigned) [Compound 354] | 0.02 | 
CN(C(=O)c1ccc2cn[nH]c2c1)C1COCc2[nH]c(=O)c3cc(F)ccc3c21 (single isomer, unassigned) [Compound 470, N-(8-fluoro-6-oxo-1,4,5,6-tetrahydro-2H-pyrano[3,4-c]isoquinolin-1-yl)-N-methyl-1H-indazole-6-carboxamide] | 1.1 | 
CN(C(=O)c1cc2ccc(Cl)cn2c1)C1CNCc2[nH]c(=O)c3cc(F)c(F)cc3c21 (single isomer, unassigned) [Compound 121, 6-Chloro-N-(8,9-difluoro-6-oxo-1,2,3,4,5,6-hexahydrobenzo[c][1,7]naphthyridin-1-yl)-N-methylindolizine-2-carboxamide] | 0.03 | 
CN(C(=O)c1cc2cc(S(C)(=O)=O)ccc2[nH]1)C1CNCc2[nH]c(=O)c3cc(F)c(F)cc3c21 (single isomer, unassigned) [Compound 403, N-(8,9-Difluoro-6-oxo-1,2,3,4,5,6-hexahydrobenzo[c][1,7]naphthyridin-1-yl)-N-methyl-5-(methylsulfonyl)-1H-indole-2-carboxamide] |  | 25
CN(C(=O)c1c[nH]c(=O)c(Br)c1)[C@@H]1COCc2[nH]c(=O)c3cc(F)c(F)cc3c21 [Compound 205, (S)-5-Bromo-N-(8,9-difluoro-6-oxo-1,4,5,6-tetrahydro-2H-pyrano[3,4-c]isoquinolin-1-yl)-N-methyl-6-oxo-1,6-dihydropyridine-3-carboxamide] |  | 15.8
CN(C(=O)c1cc2c(C(F)F)cc(F)cc2[nH]1)C1CNCc2[nH]c(=O)c3cc(F)c(F)cc3c21 (single isomer, unassigned) [Compound 257, N-(8,9-Difluoro-6-oxo-1,2,3,4,5,6-hexahydrobenzo[c][1,7]naphthyridin-1-yl)-4-(difluoromethyl)-6-fluoro-N-methyl-1H-indole-2-carboxamide] | 2.2 | 
CN(C(=O)c1ccc(-c2ccc(F)cc2)cc1)[C@@H]1COCc2[nH]c(=O)c3cc(F)c(F)cc3c21 [Compound 250, (S)-N-(8,9-Difluoro-6-oxo-1,4,5,6-tetrahydro-2H-pyrano[3,4-c]isoquinolin-1-yl)-4′-fluoro-N-methyl-[1,1′-biphenyl]-4-carboxamide] |  | 8.1
CN(C(=O)c1cc(-c2ccc(F)cc2)no1)[C@@H]1COCc2[nH]c(=O)c3cc(F)c(F)cc3c21 [Compound 236, (S)-N-(8,9-Difluoro-6-oxo-1,4,5,6-tetrahydro-2H-pyrano[3,4-c]isoquinolin-1-yl)-3-(4-fluorophenyl)-N-methylisoxazole-5-carboxamide] |  | 15.1
CN(C(=O)c1cc2cc(OC(F)(F)F)ccc2[nH]1)[C@@H]1COCc2[nH]c(=O)c3cc(F)c(F)cc3c21 [Compound 327, (S)-N-(8,9-Difluoro-6-oxo-1,4,5,6-tetrahydro-2H-pyrano[3,4-c]isoquinolin-1-yl)-N-methyl-5-(trifluoromethoxy)-1H-indole-2-carboxamide] |  | 1.2
CN(C(=O)C1(O)Cc2cc(F)c(F)cc2C1)[C@@H]1COCc2[nH]c(=O)c3cc(F)c(F)cc3c21 [Compound 276, (S)-N-(8,9-Difluoro-6-oxo-1,4,5,6-tetrahydro-2H-pyrano[3,4-c]isoquinolin-1-yl)-5,6-difluoro-2-hydroxy-N-methyl-2,3-dihydro-1H-indene-2-carboxamide] |  | 1.95
CN(C(=O)c1ccc2cn[nH]c2c1)[C@@H]1COCc2[nH]c(=O)c3cc(F)c(F)cc3c21 [Compound 450, (S)-N-(8,9-Difluoro-6-oxo-1,4,5,6-tetrahydro-2H-pyrano[3,4-c]isoquinolin-1-yl)-N-methyl-1H-indazole-6-carboxamide] |  | 0.11
CN(C(=O)c1ccc(-c2cccc(F)c2)cc1)C1CNCc2[nH]c(=O)c3cc(F)c(F)cc3c21 (single isomer, unassigned) [Compound 301, N-(8,9-Difluoro-6-oxo-1,2,3,4,5,6-hexahydrobenzo[c][1,7]naphthyridin-1-yl)-3′-fluoro-N-methyl-[1,1′-biphenyl]-4-carboxamide] | 24.5 | 
CN(C(=O)c1cc2cc(F)c(F)cc2[nH]1)C1COCc2nc(NCCN)c3cc(F)c(F)cc3c21 (single isomer, unassigned) [Compound 352, N-(6-((2-Aminoethyl)amino)-8,9-difluoro-1,4-dihydro-2H-pyrano[3,4-c]isoquinolin-1-yl)-5,6-difluoro-N-methyl-1H-indole-2-carboxamide] | 0.59 | 
CN(C(=O)C1Cc2cc(F)ccc2N1)C1COCc2[nH]c(=O)c3cc(F)c(F)cc3c21 (single isomer, unassigned) [Compound 5, N-(8,9-Difluoro-6-oxo-1,4,5,6-tetrahydro-2H-pyrano[3,4-c]isoquinolin-1-yl)-5-fluoro-N-methylindoline-2-carboxamide] | 0.02 | 
